In US6518288B2, “Amlodipine fumarate” (Synthon BV, priority 2000, dated 2003):

Assay: Solubility of amlodipine hemifumarate in water and organic solvents (descriptive statement)
Format: physicochemical
Settings: in water and most commonly used organic solvents

Substance: Amlodipine Hemifumarate
- solubility: insoluble or only sparingly soluble
